From US5420348A, “Urea derivatives and salts thereof” (Yamanouchi Pharmaceutical Co., Ltd., priority 1990, dated 1995)

What was measured:
[1] = biological target: acyl-CoA cholesterol acyltransferase (ACAT); assay: Inhibitory action against acyl-CoA cholesterol acyltransferase (ACAT) activity in rabbit liver microsome; assay type: biochemical; conditions: 36 μM [1-14C]oleoyl CoA, pH 7.4, 37° C., 10 minutes, read-out: ACAT Inhibiting Activity IC50 (50% Inhibition Concentration)
Protocol: i) ACAT enzyme inhibiting activity:
Inhibitory action against acyl-CoA cholesterol acyltransferase (ACAT) activity in rabbit liver microsome
The rabbit liver microsome was prepared as an enzyme fraction according to the method of Heider (J. G. Heider et al., J. of Lipid Res., Vol. 24, 1127-34 (1983)).
To the mixture of 0.154M phosphate buffer solution (pH 7.4), 2 mM dithiothreitol, 36 μM bovine serum albumin and 10-100 μg of microsome fraction was added liposome prepared by the method of Suckling (K. E. Suckling et al., FEBS Letters, Vol. 151, No. 111-116 (1983)) so that the proposition of liposome became 20% v/v. To the mixture was added 2% v/v of each concentration of test compound solution in dimethyl sulfoxide and the mixture was heated at 37° C. for 5 minutes. Then 36 μM oleoyl CoA containing 1^14 C-oleoyl CoA was added and the resultant mixture was heated at 37° C. for 10 minutes. The reaction was stopped by adding chloroform/methanol (=2/1). After stirring, cholesterol oleate extracted into the chloroform layer was separated by thin layer chromatography and the radioactivity was determined as ACAT activity.

serum total cholesterol = assay: Lipid-lowering activity in rats fed a diet containing 1.5% cholesterol and 0.5% bile acid; assay type: in vivo; conditions: Rattus norvegicus; male Sprague-Dawley rats, 1.5% cholesterol/0.5% bile acid diet for 7 days, oral once a day during last 5 days, blood 2 hours after last administration; read-out: % Reduction in Serum Total Cholesterol ED50
Source text: ii) Lipid-lowering activity:
Two hours after the last administration, blood samples were collected under ether anesthesia for determination of serum total cholesterol level and HDL-cholesterol level.

**Q.** How did the IC50 [1] turn out when Cc1cc(C)c(NC(=O)N(Cc2ccc3c(c2)Cc2ccccc2-3)C2CCCCCC2)c(C)c1 [Example 1, 1-Cycloheptyl-1-[(2-fluorenyl)methyl]-3-(2,4,6-trimethylphenyl)urea] was run?
**A.** The IC50 was 73 nM.

**Q.** And the ED50 (serum total cholesterol)?
**A.** Its ED50 is 3.8 mg/kg.

**Q.** For Cc1cc(C)c(NC(=O)N(Cc2cc3ccccc3c3ccccc23)C2CCCCCC2)c(C)c1 [Example 10, 1-Cycloheptyl-1-[(9-phenanthrenyl)methyl]-3-(2,4,6-trimethylphenyl)urea], which IC50 [1] is on record?
**A.** The IC50 was 61 nM.

**Q.** And the ED50 (serum total cholesterol)?
**A.** Its ED50 is 1.7 mg/kg.
